In US10800741B2 (ANCUREALL PHARMACEUTICAL (SHANGHAI) CO., LTD., priority 2017, dated 2020):

Assays:
Assay type in all cases: cell-based
[1] = tested on: A2780; experiment: In vitro growth inhibition of PI3KCA amplified/mutant tumor cells A2780; settings: Homo sapiens, A2780, read-out: IC50 growth inhibition
Experimental: (§1) Suspension culture cells were collected by centrifugation (1700 rpm, 3 minutes). The supernatant was discarded and the cells were counted. According to each cell growth cycle, different concentrations of cells were prepared (5˜10×10^4 cells per ml), and inoculated to 96-well plates (Corning), with 100 μl per well, and incubated overnight at 37° C., 5% CO2. The next day, the test compound was added to the cultured cells (2 wells in parallel). The final concentration of the solvent was less than 1/1,000. The cells were further cultured for 3 to 5 days and assayed by MTT.
(§2) The adherent cells were taken out from the cell culture medium, and immediately added to a freshly prepared complete medium containing 10% CCK8 (5% FBS), 100 ul per hole. The suspended cells were directly added to a CCK8 reagent until reaching a final concentration of 10% and cultured for 1 to 4 hours.
(§3) T=optical density of drug-treated cell wells−optical density of blank control wells; T0=optical density of cell wells before drug treatment−optical density of blank control wells; C=optical density of solvent control wells−optical density of blank control wells. […] The experiments were repeated 1 to 3 times and a statistical analysis of data was conducted.

[2] = tested on: AGS; experiment: In vitro growth inhibition of PI3KCA amplified/mutant tumor cells AGS; settings: Homo sapiens, read-out: IC50 growth inhibition
Experimental: as §1, §2, §3

[3] = tested on: SK-OV-3; experiment: In vitro growth inhibition of PI3KCA amplified/mutant tumor cells SK-OV-3; settings: Homo sapiens, SK-OV-3, read-out: IC50 growth inhibition
Experimental: as §1, §2, §3

[4] = tested on: HCT116; experiment: In vitro growth inhibition of PI3KCA amplified/mutant tumor cells HCT116; settings: Homo sapiens, HCT-116, read-out: IC50 growth inhibition
Experimental: as §1, §2, §3

[5] = tested on: KYSE70; experiment: In vitro growth inhibition of PI3KCA amplified/mutant tumor cells KYSE70; settings: Homo sapiens, KYSE-70, read-out: IC50 growth inhibition
Experimental: as §1, §2, §3

[6] = tested on: HGC-27; experiment: In vitro growth inhibition of PI3KCA amplified/mutant tumor cells HGC-27; settings: Homo sapiens, HGC-27, read-out: IC50 growth inhibition
Experimental: as §1, §2, §3

[7] = tested on: HCC1954; experiment: In vitro growth inhibition of PI3KCA amplified/mutant tumor cells HCC1954; settings: Homo sapiens, HCC1954, read-out: IC50 growth inhibition
Experimental: as §1, §2, §3

[8] = tested on: NCI-H460; experiment: In vitro growth inhibition of PI3KCA amplified/mutant tumor cells NCI-H460; settings: Homo sapiens, NCI-H460, read-out: IC50 growth inhibition
Experimental: as §1, §2, §3

[9] = tested on: SW48; experiment: In vitro growth inhibition of PI3KCA amplified/mutant tumor cells SW48; settings: Homo sapiens, SW48, read-out: IC50 growth inhibition
Experimental: as §1, §2, §3

IC50 [1]: 9.67 nM
IC50 [2]: 39.5 nM
IC50 [3]: 10.2 nM
IC50 [4]: 65.1 nM
IC50 [5]: 19.7 nM
IC50 [6]: 17.3 nM
IC50 [7]: 6.8 nM
IC50 [8]: 30.4 nM
IC50 [9]: 27.5 nM
Compound: COc1c(OCCCN2CCOCC2)ccc2c1N=C(NC(=O)c1cnc(N)nc1)N1CCN=C21 [BAY 80-6946, reference compound]
